Measured values as given in article PMC7991022, “Optimization of extracellular ethanol-tolerant β-glucosidase production from a newly isolated Aspergillus sp. DHE7 via solid state fermentation using jojoba meal as substrate: purification and biochemical characterization for biofuel preparation” (Journal of Genetic Engineering & Biotechnology, 2021).

Tested on: T1, Aspergillus sp. DHE7 β-glucosidase
T1 construct: gene beta-D-glucosidase; native extracellular enzyme purified from solid-state culture (jojoba meal): ethanol precipitation, DEAE-Sephadex A-50, Sephadex G-100; monomer, 135 kDa by SDS-PAGE
Assay: p-nitrophenol release at […] nm, Lineweaver-Burk plot
Assay type: biochemical
Conditions: pH 6.0, 60 °C, 50 mM Na-citrate; 0.25 to 20 mM substrate; apparent Km

Km: 400 µM
SMILES: O=[N+]([O-])c1ccc(O[C@@H]2O[C@H](CO)[C@@H](O)[C@H](O)[C@H]2O)cc1 [p-nitrophenyl-β-D-glucopyranoside]
